Data reported in patent publication US9802960B2 (MILLENNIUM PHARMACEUTICALS, INC., priority 2014, dated 2017).

The molecules below were run against Human VPS34 (Homo sapiens (Human), UniProt Q8NEB9) (assay: Human VPS34 enzyme assay (Adapta TR-FRET)). Details: compound concentration 1.11 μM; read-out: Percent Inhibition.
Chain of Human VPS34 (Q8NEB9 whole entry): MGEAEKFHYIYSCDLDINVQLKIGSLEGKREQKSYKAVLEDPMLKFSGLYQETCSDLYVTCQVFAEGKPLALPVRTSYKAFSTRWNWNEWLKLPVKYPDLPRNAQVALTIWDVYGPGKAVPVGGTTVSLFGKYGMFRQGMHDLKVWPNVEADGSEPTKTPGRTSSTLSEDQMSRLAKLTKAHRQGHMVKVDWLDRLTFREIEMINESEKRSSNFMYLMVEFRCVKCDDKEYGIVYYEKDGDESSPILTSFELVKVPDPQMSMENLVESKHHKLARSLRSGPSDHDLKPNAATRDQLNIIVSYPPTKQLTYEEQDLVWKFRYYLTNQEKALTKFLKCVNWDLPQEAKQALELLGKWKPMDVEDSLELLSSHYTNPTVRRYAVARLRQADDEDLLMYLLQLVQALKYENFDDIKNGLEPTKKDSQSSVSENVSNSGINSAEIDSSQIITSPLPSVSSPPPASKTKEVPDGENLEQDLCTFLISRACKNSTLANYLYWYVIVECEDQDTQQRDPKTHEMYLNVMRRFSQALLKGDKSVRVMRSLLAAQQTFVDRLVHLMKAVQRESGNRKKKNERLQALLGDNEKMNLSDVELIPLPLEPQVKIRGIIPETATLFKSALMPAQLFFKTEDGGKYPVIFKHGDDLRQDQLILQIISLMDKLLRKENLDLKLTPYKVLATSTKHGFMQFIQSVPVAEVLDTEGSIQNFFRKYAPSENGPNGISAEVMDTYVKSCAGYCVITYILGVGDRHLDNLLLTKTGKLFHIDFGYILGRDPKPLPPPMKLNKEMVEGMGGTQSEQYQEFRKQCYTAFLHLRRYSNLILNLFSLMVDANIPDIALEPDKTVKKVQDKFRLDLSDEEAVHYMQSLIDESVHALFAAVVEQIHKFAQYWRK
Format: biochemical
Molecule `CC(=O)Nc1cc(-c2cnc3ccn(S(=O)(=O)c4ccccc4)c3c2)ccn1` [Compound I-23, N-{4-[1-(phenylsulfonyl)-1H-pyrrolo[3,2-b]pyridin-6-yl]pyridin-2-yl}acetamide] has an inhibition at 1.11 µM of over 99%.
For `Cc1nccc(Nc2cc(-c3cncc(C(=O)N(C)C45CC(C4)C5)c3)ccn2)n1` [Compound I-234, N-(bicyclo[1.1.1]pent-1-yl)-N-methyl-2′-[(2-methylpyrimidin-4-yl)amino]-3,4′-bipyridine-5-carboxamide], the inhibition at 1.11 µM was 90%.
For `CC(=O)Nc1cc(-c2cncc(NS(=O)(=O)c3ccc(F)cc3F)c2Cl)ccn1` [Compound I-394, N-(4-chloro-5-{[(2,4-difluorophenyl)sulfonyl]amino}-3,4′-bipyridin-2′-yl)acetamide], the inhibition at 1.11 µM was over 99%.
In the case of `CNc1ncc(-c2ccnc(NC(C)=O)c2)cc1S(=O)(=O)Nc1ccc(F)cc1F` [Compound I-63, N-{5-[(2,4-difluorophenyl)sulfamoyl]-6-(methylamino)-3,4′-bipyridin-2′-yl}acetamide], the inhibition at 1.11 µM was over 99%.
Molecule `CCOC(=O)Nc1cc(-c2cnc(C)c(NS(=O)(=O)c3ccc(Cl)cc3F)c2)ccn1` [Compound I-456, ethyl (5-{[(4-chloro-2-fluorophenyl)sulfonyl]amino}-6-methyl-3,4′-bipyridin-2′-yl)carbamate] has an inhibition at 1.11 µM of over 99%.
With `Cc1nccc(Nc2cc(-c3cncc(C(C)Oc4ccccc4F)c3)ccn2)n1` (stereo not drawn) [Compound I-422, 5-[1-(2-fluorophenoxy)ethyl]-N-(2-methylpyrimidin-4-yl)-3,4′-bipyridin-2′-amine] the inhibition at 1.11 µM was 96%.
In the case of `Cc1nccc(Nc2cc(-c3cnc4c(c3)C(=O)N(Cc3ccccc3)CC4)ccn2)n1` [Compound I-378, 6-benzyl-3-[2-[(2-methylpyrimidin-4-yl)amino]-4-pyridyl]-7,8-dihydro-1,6-naphthyridin-5-one], the inhibition at 1.11 µM was 66%.
`COc1ncc(-c2ccnc(NC(C)=O)c2)cc1S(=O)(=O)Nc1cccc(C(F)(F)F)c1` [Compound I-329, N-(6-methoxy-5-{[3-(trifluoromethyl)phenyl]sulfamoyl}-3,4′-bipyridin-2′-yl)acetamide] was tested, and the inhibition at 1.11 µM was over 99%.
`CCN(CC)S(=O)(=O)c1cc(-c2ccnc(NC(C)=O)c2)cnc1N` [Compound I-124, N-[6-amino-5-(diethylsulfamoyl)-3,4′-bipyridin-2′-yl]acetamide] showed an inhibition at 1.11 µM of 91%.
For `Cc1nccc(Nc2cc(-c3cnc4c(c3)C(=O)NCC4)ccn2)n1` [Compound I-406, 3-[2-[(2-methylpyrimidin-4-yl)amino]-4-pyridyl]-7,8-dihydro-6H-1,6-naphthyridin-5-one], the inhibition at 1.11 µM was 80%.
`COC(=O)Nc1cc(-c2cncc(S(=O)(=O)N3CCOCC3)c2)ccn1` [Compound I-332, methyl[5-(morpholin-4-ylsulfonyl)-3,4′-bipyridin-2′-yl]carbamate] showed an inhibition at 1.11 µM of over 99%.
Work on `COc1cc(F)c(S(=O)(=O)Nc2cc(-c3ccnc(NC(C)=O)c3)cnc2C)cc1F` [Compound I-159, N-(5-{[(2,5-difluoro-4-methoxyphenyl)sulfonyl]amino}-6-methyl-3,4′-bipyridin-2′-yl)acetamide] yielded an inhibition at 1.11 µM of over 99%.
`CC(=O)Nc1cc(-c2cc(NS(=O)(=O)c3ccc(F)cc3F)c3ncnn3c2)ccn1` [Compound I-340, N-[4-(8-{[(2,4-difluorophenyl)sulfonyl]amino}[1,2,4]triazolo[1,5-a]pyridin-6-yl)pyridin-2-yl]acetamide] gave an inhibition at 1.11 µM of 91%.
For `Cc1ncc(-c2ccnc(NC(=O)C3CC3(F)F)c2)cc1NS(=O)(=O)c1ccc(F)cc1F` (racemic) [Compound I-16, (rac)-N-(5-{[(2,4-difluorophenyl)sulfonyl]amino}-6-methyl-3,4′-bipyridin-2′-yl)-2,2-difluorocyclopropanecarboxamide], the inhibition at 1.11 µM was over 99%.
In the case of `Cc1c(-c2ccnc(Nc3ccncn3)c2)cnc(Cl)c1NS(=O)(=O)c1ccc(F)cc1F` [Compound I-282, N-[6-chloro-4-methyl-2′-(pyrimidin-4-ylamino)-3,4′-bipyridin-5-yl]-2,4-difluorobenzenesulfonamide], the inhibition at 1.11 µM was 94%.
